Reference: patent publication US4880809A, “1,4-disubstituted piperazines (or homopiperazines) as platelet-activating factor antagonists” (Takeda Chemical Industries, Ltd., priority 1987, dated 1989)
Structures can show the parent of a compound that is named as a salt.

Tests used:
[1] = test system: PAF-Induced Platelet Aggregation; experiment: Inhibitory Action on PAF-Induced Platelet Aggregation; type: cell-based, New Zealand white male rabbits; details: Oryctolagus cuniculus, Drug Concentration: 3 × 10^-5 M, rabbit PRP
Protocol: Blood was collected from the hearts of conscious New Zealand white male rabbits weighing 2 to 3 kg using citric acid as an anticoagulant (one volume part of 3.15% citric acid per 9 volume parts of the whole blood). The blood was subjected to a centrifuge at 800 rpm for ten minutes to obtain platelet rich plasma (PRP). The remaining blood after collecting the PRP was subjected to a centrifuge at 3000 rpm for ten minutes to obtain platelet poor plasma (PPP). PRP was diluted with PPP, and the number of platelets was adjusted to 500,000/μl. Platelet aggregation was examined by means of turbidimetry [Born, Nature, 194, 927-929 (1962)] with 8 channel aggregometer (NBS HEMA TRACER 6 Nikoh, Bioscience, Japan). More concretely, PRP (250 μl) was kept warm (37° C.) for three minutes in a silicon-processed cuvette, to which was added a test sample (25 μl) dissolved in a physiological saline or in 10mM dimethylsulfoxide followed by dilution with a physiological saline. Two minutes later, PAF (25 μl, 3×10^-9 -1×10^-8 M), dissolved in a physiological saline, was added and then the maximum aggregation rate was determined. As the control, physiological saline without test sample was added to the cuvette, and the inhibitory rate thereon was determined.

PAF-Induced Hypotension = experiment: Inhibitory Action on PAF-Induced Hypotension; type: in vivo, SD (Jcl) male rats; details: po, rat; for inhibition in vivo at 30 mg/kg: 30 mg/kg p.o.; for inhibition in vivo at 3 mg/kg: 3 mg/kg p.o.; for inhibition in vivo at 10 mg/kg: 10 mg/kg p.o.
Protocol: SD (Jcl) male rats of 6 to 8 week old were subjected to the experiment. After fasting overnight, the rats were cannulated into the femoral artery and vein under anesthesia with pentobarbital. A transducer (MPU-0.5-290O-III, TOYO BALDWIN, Japan) was connected with the artery cannula, and blood pressure was continuously measured. […] The rate of inhibition of lowering of blood pressure after administration of the test samples against the control was evaluated.

Structure (SMILES) | inhibition at 30 µM [1] | inhibition in vivo at 30 mg/kg (PAF-Induced Hypotension; after 1 hr) | inhibition in vivo at 30 mg/kg (PAF-Induced Hypotension; after 2 hrs) | inhibition in vivo at 30 mg/kg (PAF-Induced Hypotension; after 4 hrs) | further results
CCOc1cc2c(cc1OCC)CCC(C(=O)N1CCN(Cc3cc(OC)c(OC)c(OC)c3)CC1)=C2 [Example 58, 1-(6,7-diethoxy-1,2-dihydro-3-naphthoyl)-4-(3,4,5-trimethoxybenzyl)piperazine hydrochloride] | 100% | 88% | 95% | 65% | 
COc1cc2c(cc1OC)CC(C(=O)N1CCN(C(=O)c3cc(OC)c(OC)c(OC)c3)CC1)CC2 (centres unmarked) [Example 79] |  | 81% | 88% | 66% | 
CCOc1c(OC)cc(C(=O)N2CCN(C(=O)C3=Cc4cc(OC)c(OC)cc4CCC3)CC2)cc1OC [Example 75, 1-(2,3-dimethoxy-6,7-dihydro-5H-benzocyclohepten-8-ylcarbonyl)-4-(3,5-dimethoxy-4-ethoxy-benzoyl)piperazine] |  | 61% | 54% | 61% | 
COc1cc2c(cc1OC)CCCC(C(=O)N1CCN(C(=S)c3cc(OC)c(OC)c(OC)c3)CC1)=C2 [Example 76, 1-(2,3-dimethoxy-6,7-dihydro-5H-benzocyclohepten-8-ylcarbonyl)-4-(3,4,5-trimethoxythiobenzoyl)piperazine] |  | 100% | 100% | 100% | inhibition in vivo at 3 mg/kg (PAF-Induced Hypotension; after 1 hr): 72%; inhibition in vivo at 3 mg/kg (PAF-Induced Hypotension; after 2 hrs): 69%; inhibition in vivo at 3 mg/kg (PAF-Induced Hypotension; after 4 hrs): 60%
COc1cc(CN2CCN(C(=O)c3ccc4ccccc4c3)CC2)cc(OC)c1OC [Example 7, 1-(2-naphthoyl)-4-(3,4,5-trimethoxybenzyl)piperazine hydrochloride] | 95% |  |  |  | 
COc1cc2c(cc1OC)CC(C(=O)N1CCN(C(=O)c3cc(OC)c(OC)c(OC)c3)CC1)CCC2 (centres unmarked) [Example 86, 1-(2,3-dimethoxy-5,6,7,8-tetrahydrobenzocyclohepten-6-ylcarbonyl)-4-(3,4,5-trimethoxy-benzoyl)piperazine] |  | 100% | 100% | 100% | inhibition in vivo at 10 mg/kg (PAF-Induced Hypotension; after 1 hr): 90%; inhibition in vivo at 10 mg/kg (PAF-Induced Hypotension; after 2 hrs): 92%; inhibition in vivo at 10 mg/kg (PAF-Induced Hypotension; after 4 hrs): 92%
COc1cc(CN2CCN(C(=O)c3ccc4c(OC)c(OC)c(OC)cc4c3)CC2)cc(OC)c1OC [Example 12, 1-(3,4,5-trimethoxybenzyl)-4-(5,6,7-trimethoxy)-2-naphthoyl)piperazine hydrochloride] | 100% |  |  |  | 
COc1cc(CN2CCN(C(=O)C3=Cc4cc(OC)c(OC)c(OC)c4CC3)CC2)cc(OC)c1OC [Example 10, 1-(6,7,8-trimethoxy-1,2-dihydro-3-naphthoyl)-4-(3,4,5-trimethoxybenzyl)piperazine hydrochloride] | 87% |  |  |  | 
COc1ccc2c(c1)CCC(C(=O)N1CCN(Cc3cc(OC)c(OC)c(OC)c3)CC1)=C2 [Example 1, 1-(7-methoxy-1,2-dihydro-3-naphthoyl)-4-(3,4,5-trimethoxybenzyl)piperazinehydrochloride] | 100% |  |  |  | 
CCOc1cc2c(cc1OCC)CCCC(C(=O)N1CCN(C(=O)c3cc(OC)c(OC)c(OC)c3)CC1)=C2 [Example 73, 1-(2,3-diethoxy-6,7-dihydro-5H-benzocyclohepten-8-ylcarbonyl)-4-(3,4,5-trimethoxybenzoyl)piperazine] |  | 98% | 98% | 96% | 
COc1cc(CN2CCN(C(=O)C3=Cc4cc(OCc5ccccc5)c(OCc5ccccc5)cc4CC3)CC2)cc(OC)c1OC [Example 28, 1-(6,7-dibenzyloxy-1,2-dihydro-3-naphthoyl)-4-(3,4,5-trimethoxybenzyl)piperazine hydrochloride] | 87% |  |  |  | 
COc1cc(CN2CCN(C(=O)c3ccc4c(c3)C(=O)c3ccccc3C4=O)CC2)cc(OC)c1OC [Example 26, 1-(2-anthraquinonylcarbonyl)-4-(3,4,5-trimethoxybenzyl)piperazine] | 91% |  |  |  | 
COc1cc(C(=O)N2CCN(C(=O)C3=Cc4ccc(OC)c(OC)c4CCC3)CC2)cc(OC)c1OC [Example 78, 1-(3,4-dimethoxy-6,7-dihydro-5H-benzocyclohepten-8-ylcarbonyl)-4-(3,4,5-trimethoxybenzoyl)piperazine] |  | 73% | 57% | 26% | 
COc1cc2c(cc1OC)CCCCC(C(=O)N1CCN(Cc3cc(OC)c(OC)c(OC)c3)CC1)=C2 [Example 84, 1-(2,3-dimethoxy-5,6,7,8-tetrahydrobenzocycloocten-9-ylcarbonyl)-1-(3,4,5-trimethoxybenzyl)piperazine hydrochloride] | 100% | 100% | 100% | 73% | 
CCOc1cc2c(cc1OCC)CCCC(C(=O)N1CCN(Cc3cc(OC)c(OC)c(OC)c3)CC1)=C2 [Example 72, 1-(2,3-diethoxy-6,7-dihydro-5H-benzocyclohepten-8-ylcarbonyl)-4-(3,4,5-trimethoxybenzyl)piperazine hydrochloride] | 100% | 98% | 99% | 75% | 
COc1cc(CN2CCN(C(=O)c3ccc4c(c3)C(O)c3ccccc3-4)CC2)cc(OC)c1OC (centres unmarked) [Example 39, 1-(9-hydroxy-2-fluorenylcarbonyl)-4-(3,4,5-trimethoxybenzyl)piperazine hydrochloride] | 100% | 70% | 64% | 47% | 
COc1cc(CN2CCN(C(=O)C3=Cc4ccc(OC)c(OC)c4CCC3)CC2)cc(OC)c1OC [Example 43, 1-(3,4-dimethoxy-6,7-dihydro-5H-benzocyclohepten-8-ylcarbonyl)-4-(3,4,5-trimethoxybenzyl)piperazine hydrochloride] | 89% |  |  |  | 
COc1cc2c(cc1OC)CCC(C(=O)N1CCN(C(=O)c3cc(OC)c(OC)c(OC)c3)CC1)=C2 [Example 56, 1-(6,7-dimethoxy-1,2-dihydro-3-naphthoyl)-4-(3,4,5-trimethoxybenzoyl)piperazine] | 100% | 100% | 97% | 88% | 
COc1ccc2cc(C(=O)N3CCN(Cc4cc(OC)c(OC)c(OC)c4)CC3)ccc2c1 [Example 9, 1-(6-methoxy-2-naphthoyl)-4-(3,4,5-trimethoxybenzyl)piperazine hydrochloride] | 87% |  |  |  | 
COc1cc(CN2CCN(C(=O)c3ccc4c(c3)C(=O)c3ccccc3-4)CC2)cc(OC)c1OC [Example 38, 1-(9-oxo-2-fluorenylcarbonyl)-4-(3,4,5-trimethoxybenzyl)piperazine] | 85% |  |  |  | 
COc1cc(CN2CCN(C(=O)C3=Cc4ccc(OCc5ccccc5)cc4CC3)CC2)cc(OC)c1OC [Example 32, 1-(7-benzyloxy-1,2-dihydro-3-naphthoyl)-4-(3,4,5-trimethoxybenzyl)piperazine hydrochloride] | 100% |  |  |  | 
CCCCOc1ccc2c(c1)CCC(C(=O)N1CCN(Cc3cc(OC)c(OC)c(OC)c3)CC1)=C2 [Example 15, 1-(7-butoxy-1,2-dihydro-3-naphthoyl)-4-(3,4,5-trimethoxybenzyl)piperazine hydrochloride] | 100% |  |  |  | 
COc1cc(CN2CCN(C(=O)C3=Cc4cc(OC(C)=O)c(OC(C)=O)cc4CC3)CC2)cc(OC)c1OC [Example 36, 1-(6,7-diacetyloxy-1,2-dihydro-3-naphthoyl)-4-(3,4,5-trimethoxybenzyl)piperazine fumarate] | 86% |  |  |  | 
COc1cc2ccc(C(=O)N3CCN(Cc4cc(OC)c(OC)c(OC)c4)CC3)cc2cc1OC [Example 21, 1-(6,7-dimethoxy-2-naphthoyl)-4-(3,4,5-trimethoxybenzyl)piperazinehydrochloride] | 93% |  |  |  | 
COc1cc2c(cc1OC)CC(C(=O)N1CCN(C(=O)c3cc(OC)c(OC)c(OC)c3)CC1)=C2 [Example 61, 1-(5,6-dimethoxy-1-H-inden-2-ylcarbonyl)-4-(3,4,5-trimethoxybenzoyl)piperazine] |  | 86% | 82% | 74% | 
CCCCOc1ccc2cc(C(=O)N3CCN(Cc4cc(OC)c(OC)c(OC)c4)CC3)ccc2c1 [Example 17, 1-(6-butoxy-2-naphthoyl)-4(3,4,5-trimethoxybenzyl)piperazine hydrochloride] | 97% |  |  |  | 
COc1cc2ccccc2cc1C(=O)N1CCN(Cc2cc(OC)c(OC)c(OC)c2)CC1 [Example 24, 1-(3-methoxy-2-napththoyl)-4-(3,4,5-trimethoxybenzyl)piperazine hydrochloride] | 100% |  |  |  | 
COc1cc(CN2CCN(C(=O)c3cccc4ccccc34)CC2)cc(OC)c1OC [Example 8, 1-(1-naphthoyl)-4-(3,4,5-trimethoxybenzyl)piperazine hydrochloride] | 84% |  |  |  | 
CCCCOc1cc2ccc(C(=O)N3CCN(Cc4cc(OC)c(OC)c(OC)c4)CC3)cc2cc1OCCCC [Example 23, 1-(6,7-dibutoxy-2-naphthoyl)-4-(3,4,5-trimethoxybenzyl)piperazine hydrochloride] | 100% |  |  |  | 
COc1cc2ccc(C(=O)N3CCN(Cc4cc(OC)c(OC)c(OC)c4)CC3)c(O)c2cc1OC [Example 41, 1-(6,7-dimethoxy-1-hydroxy-2-naphthoyl)-4-(3,4,5-trimethoxybenzyl)piperazine hydrochloride] | 97% |  |  |  | 
